Experimental findings from publication PMC11224556, “Next-generation of BBQ analogues that selectively target breast cancer” (Frontiers in Chemistry, 2024) are described below.

Holding throughout (assay type): cell-based, human
One assay concerns T47D breast cancer cells. Put plainly: MTT growth inhibition assay (72 h). Conditions: Breast (ER/PR). From the text:
(§1) Each BBQ analogue, 2-14 was screened for their growth inhibition ability (GI50) in a broad panel of cancer cell lines and a non-cancer breast cell line (MCF10A), using the MTT growth inhibition assay (Table 1) ([Baker et al., 2021b]). The cancer panel comprised HT29 (colorectal), U87 (brain), SJ-G2 (brain), A2780 (ovary), Du145 (prostate), BE2-C (neuronal), MIA (pancreas), H460 (lung, ER+), A431 (vulva, ER+ (estrogen receptor positive)), and a wide selection of breast cancer cell lines with varying receptor status including MCF-7 (ER + luminal A), T47D (ER/PR+ (progesterone receptor positive)luminal A), ZR-75-1 (ER/PR + luminal A), BT-474 (ER/PR/HER2+ luminal B), SKBR-3 (HER2+), MDA-MB-468, BT20, and MDA-MB-231 (basal, triple negative (TN) for ER, PR, and HER2).
(§2) Stock solutions were prepared as follows and stored as 20 mM DMSO solutions at −20 °C. All cell lines were cultured in a humidified atmosphere 5% CO2 at 37 °C. The cancer cell lines were maintained in Dulbecco’s modified Eagle’s medium (DMEM) (Trace Biosciences, Australia) supplemented with 10% foetal bovine serum (FBS), 10 mM sodium bicarbonate, penicillin (100 IU/mL), streptomycin (100 μg/mL), and glutamine (4 mM). The non-cancer MCF10A cell line was cultured in DMEM:F12 (1:1) cell culture media, 5% heat inactivated horse serum, supplemented with penicillin (50 IU/mL), streptomycin (50 μg/mL), 20 mM Hepes, L-glutamine (2 mM), epidermal growth factor (20 ng/mL), hydrocortisone (500 ng/mL), cholera toxin (100 ng/mL), and insulin (10 μg/mL). The AhR reporter cell line HT29-Lucia™ (Invivogen, United States) was maintained in DMEM supplemented with 10% heat inactivated FBS, L-glutamine (2 mM), penicillin (100 IU/mL), streptomycin (100 μg/mL), 100 μg/mL Normocin™, and 100 μg/mL of the selective antibiotic Zeocin™. All cell lines were purchased from the American Type Culture Collection (ATCC), except for A2780 and A431 which were from the European Collection of Authenticated Cell Cultures (ECACC), and SJ-G2 cell line which was from Dr Mary Danks, St Jude Children’s Research hospital, Memphis, TN.
(§3) Cells in logarithmic growth were transferred to 96-well plates. Cytotoxicity was determined by plating cells in duplicate in 100 μL medium at a density of 2,500–4,000 cells/well in 96 well plates. On day 0, (24 h after plating) when the cells were in logarithmic growth 100 μL medium with or without the test agent was added to each well. After 72 h drug exposure growth inhibitory effects were evaluated using the MTT (3-[4,5-dimethylthiazol-2-yl]-2,5-diphenyltetrazolium bromide) assay with absorbance read at 540 nm. An eight-point dose response curve was produced, using MS Excel software. From these dose-response curves, the GI50 value was calculated, representing the drug concentration at which cell growth is 50% inhibited based on the difference between the optical density values on day 0 and those at the end of drug exposure ([Bradshaw et al., 2008]; [Zhang et al., 2009]). Each data point was conducted in duplicate and the mean ± S.E.M. calculated from four to five replicates (n = 4 or 5), which were performed on separate occasions and separate cell line passages. Where shown, significant test results were determined using T-test analysis at p < 0.01 and p < 0.05 with a two tail distribution.
Background: Formazan colour is commonly taken as a measure of viable cells.

In a further assay the test system is U87 (brain) cells. Put plainly: MTT growth inhibition assay (72 h). Conditions: U87, Brain (GBM).
Excerpt: as §1, §2, §3

Assay [1] deals with MCF-7 breast cancer cells. Kind of assay: MTT growth inhibition assay (72 h).
Excerpt: as §1, §2, §3

The subject of another assay is SJ-G2 (brain) cells. Put plainly: MTT growth inhibition assay (72 h). Conditions: SJ-G2, Brain (GBM).
Excerpt: as §1, §2, §3

The subject of assay [2] is MDA-MB-231 breast cancer cells. Put plainly: MTT growth inhibition assay (72 h). The note with it: MDA-MB-231, Breast (TN).
Excerpt: as §1, §2, §3

The subject of a further assay is BE2-C (neuronal) cells. Kind of assay: MTT growth inhibition assay (72 h). The note with it: Neuron.
Excerpt: as §1, §2, §3

The test system of assay [3] is ZR-75-1 breast cancer cells. Kind of assay: MTT growth inhibition assay (72 h). Conditions: ZR-75-1, Breast (ER/PR).
Excerpt: as §1, §2, §3

Assay [4] has as its system SKBR3 breast cancer cells. Put plainly: MTT growth inhibition assay (72 h).
Excerpt: as §1, §2, §3

Another assay has as its system BT20 breast cancer cells. Put plainly: MTT growth inhibition assay (72 h).
Excerpt: as §1, §2, §3

Assay [5] deals with MDA-MB-468 breast cancer cells. Put plainly: MTT growth inhibition assay (72 h). The note with it: MDA-MB-468, Breast (TN).
Excerpt: as §1, §2, §3

The next assay relates to H460 (lung) cells. Kind of assay: MTT growth inhibition assay (72 h).
Excerpt: as §1, §2, §3

The subject of assay [6] is MCF10A normal breast cells. Kind of assay: MTT growth inhibition assay (72 h).
Excerpt: as §1, §2, §3

Assay [7] deals with BT474 breast cancer cells. Put plainly: MTT growth inhibition assay (72 h).
Excerpt: as §1, §2, §3

A further assay concerns MIA (pancreas) cells. Kind of assay: MTT growth inhibition assay (72 h).
Excerpt: as §1, §2, §3

The subject of the next assay is A2780 (ovary) cells. Put plainly: MTT growth inhibition assay (72 h).
Excerpt: as §1, §2, §3

The test system of another assay is A431 (vulva/skin) cells. Put plainly: MTT growth inhibition assay (72 h).
Excerpt: as §1, §2, §3

Another assay deals with HT29 (colorectal) cells. Kind of assay: MTT growth inhibition assay (72 h).
Excerpt: as §1, §2, §3

A further assay deals with Du145 (prostate) cells. Kind of assay: MTT growth inhibition assay (72 h).
Excerpt: as §1, §2, §3

Assay [8] has as its system broad panel of cancer cell lines and non-cancer breast cell line MCF10A. Put plainly: MTT growth inhibition: GI50 ranges and selectivity across the cell line panel.
Excerpt: as §1, §2, §3

The GI50 is the concentration giving 50% growth inhibition.

Where two headings read alike, the source gives them in different places.

Turning to “3-Chloro-7H-benzo[de]benzo[4,5]imidazo[2,1-a]isoquinolin-7-one (10a) and 4-chloro-7H-benzo[de]benzo[4,5]imidazo[2,1-a]isoquinolin-7-one (10b) [Compound 10]”, the GI50 in the assay on T47D breast cancer cells is 0.18 ± 0.019 µM; with U87 (brain) cells, 37 ± 5.8 µM; in [1] (MCF-7, Breast (ER)), 0.14 ± 0.045 µM; in the assay with SJ-G2 (brain) cells, 4.8 ± 0.44 µM; in assay [2], 29 ± 10.3 µM; with BE2-C (neuronal) cells, 7 ± 0.23 µM. For the same compound, the GI50 in [3] was determined as 0.072 ± 0.03 µM; in assay [4] (SKBR3, Breast (HER2)), 0.061 ± 0.024 µM; in the assay on BT20 breast cancer cells (BT20, Breast (TN)) it was 0.27 ± 0.12 µM; in assay [5] it was 0.0056 ± 0.0017 µM; with H460 (lung) cells (H460, Lung (ER)), 5.7 ± 1.48 µM; in assay [6], 4.2 ± 0.38 µM. In addition, the GI50 in assay [7] (BT474, Breast (ER/PR/HER2)) is 0.56 ± 0.42 µM; with MIA (pancreas) cells, 9.8 ± 3.1 µM; in the assay on A2780 (ovary) cells, 4.6 ± 0.25 µM; in the assay on A431 (vulva/skin) cells (A431, Skin (ER)), 0.15 ± 0.036 µM; with HT29 (colorectal) cells (HT29, Colon), 2.9 ± 0.18 µM; with Du145 (prostate) cells, > 50 µM. For the same compound, in assay [8] (MCF-7, T47D, ZR-75-1, SKBR-3, MDA-MB-468, BT20, BT474, read-out: GI50 (range over cell lines)), the GI50 fell in the range of 0.0056 to 0.56 µM. The “selectivity relative to the normal cell line (fold, range over cell lines)” value in assay [8] (A431, MCF-7, T47D, ZR-75-1, SKBR-3, MDA-MB-468, BT20, BT474 vs MCF10A) was in the range of 7.5 to 750 fold. The “fold more potent than head group substituted analogues 3, 4, 6, 7, 8 and 9” value in assay [8] (across the cell lines examined (Table 1)) is on record as > 10 fold.
Turning to `O=c1c2cccc3cccc(c32)c2nc3cc(Cl)ccc3n12` [Compound 4, 11-Chloro-7H-benzo[de]benzo[4,5]imidazo[2,1-a]isoquinolin-7-one], the GI50 worked out at 8.6 ± 2.2 µM in the assay on T47D breast cancer cells (Homo sapiens); 18 ± 1.8 µM in the assay on U87 (brain) cells (Homo sapiens); 5.3 ± 0.39 µM in assay [1] (Homo sapiens, MCF7, MCF-7, Breast (ER)); 8.8 ± 1.1 µM with SJ-G2 (brain) cells (Homo sapiens); 9 ± 1 µM in [2] (Homo sapiens); 10 ± 1.7 µM with BE2-C (neuronal) cells (Homo sapiens, BE(2)-C). For the same compound, the GI50 in assay [3] (Homo sapiens) was 0.81 ± 0.43 µM; in assay [4] (Homo sapiens, SK-BR-3, SKBR3, Breast (HER2)), 0.26 ± 0.07 µM; in the assay on BT20 breast cancer cells (Homo sapiens, BT-20, BT20, Breast (TN)) it was 28 ± 3 µM; in assay [5] (Homo sapiens), 0.88 ± 0.17 µM; in the assay on H460 (lung) cells (Homo sapiens, NCI-H460, H460, Lung (ER)), 8.2 ± 1.92 µM; in assay [6] (Homo sapiens, MCF-10A), 4.1 ± 0.2 µM. The GI50 was > 50 µM in assay [7] (Homo sapiens, BT-474, BT474, Breast (ER/PR/HER2)); 31 ± 3.3 µM in the assay on MIA (pancreas) cells (Homo sapiens); 6 ± 0.32 µM with A2780 (ovary) cells (Homo sapiens); 10 ± 2 µM in the assay with A431 (vulva/skin) cells (Homo sapiens, A-431, A431, Skin (ER)); 18 ± 3.2 µM in the assay with HT29 (colorectal) cells (Homo sapiens, HT-29, HT29, Colon); 12 ± 0.33 µM with Du145 (prostate) cells (Homo sapiens, DU-145). In addition, in [8] (Homo sapiens, read-out: GI50 (range over cell lines and both compounds 3 and 4), ZR-75-1, SKBR3 and MDA-MB-468), the GI50 is 0.26 to 0.88 µM. The “greatest difference between growth inhibition in breast cancer cells and normal breast cells (fold)” value in [8] (SKBR3 vs MCF10A) was 16 fold.
